Data taken from ChEMBL document CHEMBL1201862, “PubChem BioAssay data set” (2004).
Activity calls are given as the source filed them.

Experiments:
[1] = biological target: T1, Orexin/Hypocretin receptor type 1 (Homo sapiens, UniProt O43613); experiment: Homogeneous Time Resolved Fluorescence (HTRF)-based cell-based high throughput dose response assay for antagonists of the orexin 1 receptor (OX1R; HCRTR1). [Related pubchem assays (depositor defined):AID434989, AID435008, AID463079, AID485270, AID492963, AID492964, AID492965, AID493232, AID504717, AID504718]; format: functional;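 note: antagonism measured against Orexin-A challenge at about its EC80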
T1 sequence (O43613 whole entry): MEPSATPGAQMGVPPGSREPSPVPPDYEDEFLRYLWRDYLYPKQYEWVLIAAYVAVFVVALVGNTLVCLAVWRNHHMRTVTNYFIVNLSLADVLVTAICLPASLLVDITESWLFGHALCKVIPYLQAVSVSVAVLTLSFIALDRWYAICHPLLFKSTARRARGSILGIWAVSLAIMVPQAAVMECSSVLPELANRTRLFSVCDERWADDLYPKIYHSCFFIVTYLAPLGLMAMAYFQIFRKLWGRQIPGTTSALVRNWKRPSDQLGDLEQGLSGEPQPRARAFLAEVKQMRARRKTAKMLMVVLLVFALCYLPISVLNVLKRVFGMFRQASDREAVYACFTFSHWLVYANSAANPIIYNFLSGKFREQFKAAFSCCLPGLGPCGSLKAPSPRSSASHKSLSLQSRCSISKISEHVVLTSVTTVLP

Beta Lactamase = Beta Lactamase (Pseudomonas aeruginosa, UniProt Q932Y6); experiment: BLA reporter interference, concentration series – BLA reporter cells, FRET fluorescence, artefact control for TLR9-MyD88 binding inhibitor project, dose response (AID 588341); format: cell-based;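 note: cell based assay in CHO-K1 cells stably expressing beta-lactamase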
[2] = biological target: T2, RNA-binding protein pos-1 (Caenorhabditis elegans, UniProt G5EF15); experiment: disruptors of C. elegans POS-1 RNA interaction – biochemical, fluorescence polarization, dose response (AID 1964);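 note: purified POS-1 fused to maltose binding protein made in E. coli; potency of compounds blocking POS-1 binding to fluorescent RNA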
T2 sequence (G5EF15 whole entry): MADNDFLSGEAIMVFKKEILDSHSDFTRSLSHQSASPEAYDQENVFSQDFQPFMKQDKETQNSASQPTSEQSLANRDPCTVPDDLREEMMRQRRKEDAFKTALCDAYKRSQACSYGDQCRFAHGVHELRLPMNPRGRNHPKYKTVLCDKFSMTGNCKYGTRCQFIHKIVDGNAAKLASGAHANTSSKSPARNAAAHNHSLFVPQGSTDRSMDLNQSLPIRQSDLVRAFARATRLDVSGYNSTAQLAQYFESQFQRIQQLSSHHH

SUMO-activating enzyme = SUMO-activating enzyme (Homo sapiens, UniProt Q9UBT2); experiment: blockers of SAE1/SAE2–UBC9 SUMO transfer – biochemical, HTRF, uHTS, primary screen (AID 2006); format: protein-complex assay
[3] = biological target: Intestinal-type alkaline phosphatase (Mus musculus, UniProt P24822); experiment: PubChem AID 488785; format: functional
[4] = biological target: T3, 1-phosphatidylinositol 4,5-bisphosphate phosphodiesterase beta-3 (Homo sapiens, UniProt Q01970); experiment: Fluorescence-based biochemical high throughput dose response assay to identify inhibitors of phospholipase C isozymes (PLC-B3).
T3 sequence (Q01970 whole entry): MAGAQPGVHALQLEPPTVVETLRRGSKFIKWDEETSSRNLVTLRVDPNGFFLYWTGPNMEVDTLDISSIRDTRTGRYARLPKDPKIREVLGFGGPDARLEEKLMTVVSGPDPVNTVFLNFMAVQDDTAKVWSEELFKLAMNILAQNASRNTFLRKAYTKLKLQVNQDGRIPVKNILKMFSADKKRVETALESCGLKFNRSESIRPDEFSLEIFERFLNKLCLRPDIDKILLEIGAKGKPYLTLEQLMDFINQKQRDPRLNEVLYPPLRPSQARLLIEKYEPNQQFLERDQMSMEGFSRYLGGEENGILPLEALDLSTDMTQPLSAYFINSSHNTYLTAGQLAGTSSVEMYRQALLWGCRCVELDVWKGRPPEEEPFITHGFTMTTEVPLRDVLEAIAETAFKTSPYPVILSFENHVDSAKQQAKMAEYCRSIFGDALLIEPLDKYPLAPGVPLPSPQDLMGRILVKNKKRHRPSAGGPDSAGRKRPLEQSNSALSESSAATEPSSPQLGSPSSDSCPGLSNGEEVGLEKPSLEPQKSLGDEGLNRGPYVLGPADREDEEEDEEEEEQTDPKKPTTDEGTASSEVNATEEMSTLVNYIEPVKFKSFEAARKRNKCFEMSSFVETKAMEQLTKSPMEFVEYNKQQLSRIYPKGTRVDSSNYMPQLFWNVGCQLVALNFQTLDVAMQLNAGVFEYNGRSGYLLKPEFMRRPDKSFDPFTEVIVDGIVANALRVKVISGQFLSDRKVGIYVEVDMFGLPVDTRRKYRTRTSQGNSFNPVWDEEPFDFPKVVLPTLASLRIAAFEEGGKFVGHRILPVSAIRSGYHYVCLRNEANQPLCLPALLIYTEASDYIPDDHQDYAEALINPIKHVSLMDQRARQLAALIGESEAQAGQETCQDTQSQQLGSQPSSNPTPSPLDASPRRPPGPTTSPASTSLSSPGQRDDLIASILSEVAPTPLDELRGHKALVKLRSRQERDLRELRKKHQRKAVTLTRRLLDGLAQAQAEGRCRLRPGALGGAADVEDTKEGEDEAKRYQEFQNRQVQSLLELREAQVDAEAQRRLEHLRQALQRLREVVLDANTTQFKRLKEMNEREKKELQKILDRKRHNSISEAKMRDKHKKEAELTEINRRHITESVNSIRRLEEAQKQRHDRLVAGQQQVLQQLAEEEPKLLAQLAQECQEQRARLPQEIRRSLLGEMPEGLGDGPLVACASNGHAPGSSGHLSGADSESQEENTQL

[5] = biological target: Platelet-derived growth factor receptor beta (Homo sapiens, UniProt P09619); format: functional;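 note: value comes from a kinome panel, with PDGFRB tested as one panel member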
[6] = Counterscreen for AddAB inhibitors: absorbance-based bacterial cell-based high throughput dose response assay for inhibitors of bacterial viability. [Related pubchem assays (depositor defined):AID435030, AID449728, AID449731, AID488942, AID488955, AID488956]; format: functional

Sequence of Intestinal-type alkaline phosphatase (P24822 whole entry): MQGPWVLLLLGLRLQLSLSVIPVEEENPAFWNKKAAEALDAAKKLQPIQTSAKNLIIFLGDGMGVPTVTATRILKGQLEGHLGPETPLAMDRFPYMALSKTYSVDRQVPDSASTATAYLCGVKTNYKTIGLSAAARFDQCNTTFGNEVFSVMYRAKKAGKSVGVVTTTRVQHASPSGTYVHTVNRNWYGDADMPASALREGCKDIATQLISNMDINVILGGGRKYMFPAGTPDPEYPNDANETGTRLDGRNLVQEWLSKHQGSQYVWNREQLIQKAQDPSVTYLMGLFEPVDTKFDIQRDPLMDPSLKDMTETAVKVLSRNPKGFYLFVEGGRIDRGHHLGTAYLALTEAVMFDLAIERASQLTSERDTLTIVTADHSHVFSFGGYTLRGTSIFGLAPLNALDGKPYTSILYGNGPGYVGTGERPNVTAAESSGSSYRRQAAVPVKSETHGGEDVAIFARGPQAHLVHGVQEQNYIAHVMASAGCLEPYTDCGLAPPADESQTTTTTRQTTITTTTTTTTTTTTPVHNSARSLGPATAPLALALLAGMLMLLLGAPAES
Sequence of Platelet-derived growth factor receptor beta (P09619 whole entry): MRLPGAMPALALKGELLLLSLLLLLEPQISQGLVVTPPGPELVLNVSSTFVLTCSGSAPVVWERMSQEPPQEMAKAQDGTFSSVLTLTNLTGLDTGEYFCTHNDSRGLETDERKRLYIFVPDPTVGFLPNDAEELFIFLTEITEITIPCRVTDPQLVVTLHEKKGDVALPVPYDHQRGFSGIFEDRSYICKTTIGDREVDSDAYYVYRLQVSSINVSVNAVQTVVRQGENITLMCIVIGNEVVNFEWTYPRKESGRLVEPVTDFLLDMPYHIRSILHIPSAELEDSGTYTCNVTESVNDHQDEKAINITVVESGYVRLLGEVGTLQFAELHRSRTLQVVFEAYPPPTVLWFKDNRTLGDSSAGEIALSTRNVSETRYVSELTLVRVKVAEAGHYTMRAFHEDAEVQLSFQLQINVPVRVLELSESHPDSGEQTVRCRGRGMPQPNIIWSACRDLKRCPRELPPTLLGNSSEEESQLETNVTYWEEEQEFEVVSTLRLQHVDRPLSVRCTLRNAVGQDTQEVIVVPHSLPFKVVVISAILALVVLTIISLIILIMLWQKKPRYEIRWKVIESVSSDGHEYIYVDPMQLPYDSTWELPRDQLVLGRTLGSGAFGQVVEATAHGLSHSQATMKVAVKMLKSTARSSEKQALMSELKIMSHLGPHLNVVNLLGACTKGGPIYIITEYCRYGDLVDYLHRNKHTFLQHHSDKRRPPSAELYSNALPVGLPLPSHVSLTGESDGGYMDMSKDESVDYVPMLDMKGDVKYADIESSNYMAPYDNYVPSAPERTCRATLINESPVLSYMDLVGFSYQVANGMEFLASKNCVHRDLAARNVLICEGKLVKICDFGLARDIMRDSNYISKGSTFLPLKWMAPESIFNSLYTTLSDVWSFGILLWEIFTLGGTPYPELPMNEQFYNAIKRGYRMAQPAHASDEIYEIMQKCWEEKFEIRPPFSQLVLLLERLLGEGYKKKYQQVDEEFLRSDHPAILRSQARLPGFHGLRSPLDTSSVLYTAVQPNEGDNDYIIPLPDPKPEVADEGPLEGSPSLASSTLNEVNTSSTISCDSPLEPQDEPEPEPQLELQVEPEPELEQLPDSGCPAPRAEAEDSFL
Sequence of SUMO-activating enzyme (Q9UBE0 whole entry): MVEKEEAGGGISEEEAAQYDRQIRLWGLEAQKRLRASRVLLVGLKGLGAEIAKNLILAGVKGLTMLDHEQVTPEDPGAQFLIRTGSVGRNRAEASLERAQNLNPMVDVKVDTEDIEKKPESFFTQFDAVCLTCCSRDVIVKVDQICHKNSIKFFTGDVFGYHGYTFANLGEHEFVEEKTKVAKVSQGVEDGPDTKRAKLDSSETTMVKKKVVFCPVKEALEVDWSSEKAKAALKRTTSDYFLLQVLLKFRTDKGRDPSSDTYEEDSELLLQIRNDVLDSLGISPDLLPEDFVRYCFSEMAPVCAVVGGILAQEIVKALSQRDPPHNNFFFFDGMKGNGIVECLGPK
Sequence of SUMO-activating enzyme (Q9UBT2 whole entry): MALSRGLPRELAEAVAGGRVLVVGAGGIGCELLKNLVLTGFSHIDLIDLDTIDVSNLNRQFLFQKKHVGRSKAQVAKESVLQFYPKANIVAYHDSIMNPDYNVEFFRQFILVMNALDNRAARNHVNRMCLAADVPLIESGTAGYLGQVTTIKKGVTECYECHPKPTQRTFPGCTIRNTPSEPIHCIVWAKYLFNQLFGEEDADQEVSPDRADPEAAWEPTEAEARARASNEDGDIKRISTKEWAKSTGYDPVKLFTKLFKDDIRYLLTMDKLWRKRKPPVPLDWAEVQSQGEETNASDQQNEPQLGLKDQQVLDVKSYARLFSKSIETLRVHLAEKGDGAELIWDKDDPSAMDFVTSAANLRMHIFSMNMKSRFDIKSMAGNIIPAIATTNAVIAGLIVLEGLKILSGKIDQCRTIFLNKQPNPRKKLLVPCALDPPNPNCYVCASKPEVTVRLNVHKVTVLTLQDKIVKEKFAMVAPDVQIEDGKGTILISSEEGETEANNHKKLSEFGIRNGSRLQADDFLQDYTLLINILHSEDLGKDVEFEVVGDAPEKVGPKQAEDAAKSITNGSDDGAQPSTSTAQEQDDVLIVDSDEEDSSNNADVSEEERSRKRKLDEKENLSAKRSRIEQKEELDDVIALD
Sequence of Beta Lactamase (Q932Y6 whole entry, the tested form may be a part): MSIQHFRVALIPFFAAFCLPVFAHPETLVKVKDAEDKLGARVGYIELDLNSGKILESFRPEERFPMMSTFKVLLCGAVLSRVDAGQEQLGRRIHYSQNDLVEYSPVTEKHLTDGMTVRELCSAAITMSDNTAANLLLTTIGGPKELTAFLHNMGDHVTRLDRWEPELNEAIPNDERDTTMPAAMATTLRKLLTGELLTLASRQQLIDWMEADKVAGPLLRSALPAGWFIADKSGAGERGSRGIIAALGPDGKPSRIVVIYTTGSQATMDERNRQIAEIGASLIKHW

In the case of `Cc1ccc(C(=O)OCn2ncc(Cl)c(Cl)c2=O)cc1`, the IC50 [1] is reported as 17.4 µM (inactive) and the IC50 (Beta Lactamase) is reported as 48.7 µM (inactive).
With `O=C(O)CC(C(=O)O)N1C(=O)/C(=C/C=C/c2ccco2)SC1=S` (stereo not drawn) the EC50 [2] was 10.4 µM (active), the IC50 (SUMO-activating enzyme) was 13.7 µM (active) and the IC50 [3] was 30.4 µM (active). For the same compound, the IC50 [4] was > 122 µM (inactive).
In the case of `O=C(Nc1cccc(C2Nc3ccc4ccccc4c3C3C=CCC32)c1)c1ccc(F)cc1` (stereo not drawn), the Ki [5] is reported as 1.58 µM (active).
For `CCCC(=O)NC(c1cccs1)c1cc(Cl)c2cccnc2c1O` (stereo not drawn), the IC50 [6] was > 119 µM (inactive).
